Data on one compound can be found in US20200315540A1, “TREATMENT OF A DISEASE OF THE GASTROINTESTINAL TRACT WITH AN IL-1 INHIBITOR” (Progenity, Inc., priority 2016, published 2020).

Structures are written as SMILES.

The data set can be described thus: Tissue, plasma and GI content pharmacokinetics of tacrolimus, oral vs intra-cecal ingestible device delivery in swine. The class given is in vivo. The following applies: intra-cecally vs orally administered, 12 hours post-dose, FIG. 76. The protocol: No further randomization procedure was employed.
Animals in Group 1 received an ingestible device containing 0.8 mL of vehicle solution (80% alcohol, 20% HCO-60). Animals in Group 2 received orally […] liquid formulation of tacrolimus at 4 mg/0.8 mL per animal (Prograf: 5 mg/mL). Animals in Group 3 received intra-cecally an ingestible device containing tacrolimus at 1 mg in 0.8 mL per ingestible device. Animals in Group 4 received intra-cecally an ingestible device containing tacrolimus at 2 mg in 0.8 mL per ingestible device. Animals in Group 5 received intra-cecally an ingestible device containing tacrolimus at 4 mg in 0.8 mL per ingestible device. […]
Approximately 200˜400 mg of rectal content were collected, if available, with a fecal swab (Copan Diagnostics Nylon Flocked Dry Swabs, 502CS01). The fecal swab was pre-weighed and weighed after collection in the collection tube (Sterile Tube and Cap No Media, PFPM913S), and the sample weight was recorded. […]
For tissue necropsy, small intestine fluid and cecal fluid were collected separately from all the animals into two separate square plastic bottles, and stored at −20° C. The length and diameter of the cecum and the colon was measured from one animal in each group and recorded for reference. […] All samples were weighed, and the tissue sample weights were recorded. […]

Consider `C=CC[C@@H]1/C=C(\C)C[C@H](C)C[C@H](OC)[C@H]2O[C@@](O)(C(=O)C(=O)N3CCCC[C@H]3C(=O)O[C@H](/C(C)=C/[C@@H]3CC[C@@H](O)[C@H](OC)C3)[C@H](C)[C@@H](O)CC1=O)[C@H](C)C[C@@H]2OC` [tacrolimus], for which the “mean concentration in the cecum tissue and the proximate colon tissue” value was “higher”.
